The values below come from PMC3133741 (Journal of medicinal chemistry, 2011).

Molecules are shown by their SMILES. Bridge positions count the residues as written; N and C are the ends. Square brackets hold non-standard residues; d marks the D form. Peptide text beside a SMILES is read from it. * marks the point of attachment. d(aThr) = C[C@@H](O)[C@@H](N)C(=O)O; Dhb = C/C=C(\N)C(=O)O; Propionyl = CCC(=O)* A value given as a limit tells only on which side of the number the result lay.

Assay [1] has as its target T1, TRPV1 (Homo sapiens, UniProt Q8NER1). As to the kind of experiment: TRPV1 antagonism, structure-activity comparison. The class given is cell-based.
Assay [2] deals with human wild type TRPV1 (Homo sapiens, UniProt Q8NER1). Nature of the assay: Calcium flux assay in HEK-293 cells transfected with wild-type human TRPV1. The format is cell-based. Conditions: for duration of abolished TRPV1 activity after removal of drug: mouse and human TRPV1 channels. (Calcium flux is commonly read through the fluorescence of an indicator in the cells.)
Chain of human wild type TRPV1 (Q8NER1 whole entry): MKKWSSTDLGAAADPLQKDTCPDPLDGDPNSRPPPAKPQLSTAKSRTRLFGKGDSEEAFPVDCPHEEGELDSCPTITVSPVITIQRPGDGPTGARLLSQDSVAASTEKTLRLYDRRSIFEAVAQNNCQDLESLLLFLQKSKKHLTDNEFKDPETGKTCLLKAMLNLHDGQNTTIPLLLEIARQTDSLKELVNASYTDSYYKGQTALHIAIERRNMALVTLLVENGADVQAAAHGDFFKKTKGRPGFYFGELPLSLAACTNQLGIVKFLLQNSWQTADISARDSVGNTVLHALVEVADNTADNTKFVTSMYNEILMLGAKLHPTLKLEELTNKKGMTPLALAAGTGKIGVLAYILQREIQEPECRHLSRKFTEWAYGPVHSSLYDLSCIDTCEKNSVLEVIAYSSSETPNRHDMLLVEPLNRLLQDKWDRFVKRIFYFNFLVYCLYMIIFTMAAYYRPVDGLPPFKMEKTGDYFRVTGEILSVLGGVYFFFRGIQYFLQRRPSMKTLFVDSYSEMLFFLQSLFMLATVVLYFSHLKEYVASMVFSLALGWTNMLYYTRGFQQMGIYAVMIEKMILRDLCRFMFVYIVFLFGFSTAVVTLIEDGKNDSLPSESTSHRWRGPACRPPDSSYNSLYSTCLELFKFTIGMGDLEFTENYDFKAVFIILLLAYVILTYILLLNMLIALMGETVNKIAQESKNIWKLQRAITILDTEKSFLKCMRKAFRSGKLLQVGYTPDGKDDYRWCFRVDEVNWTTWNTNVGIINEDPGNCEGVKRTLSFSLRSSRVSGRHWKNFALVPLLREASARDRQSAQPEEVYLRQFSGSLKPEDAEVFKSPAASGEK
Assay [3] concerns the target human TRPV1 C621A mutant (Homo sapiens, UniProt Q8NER1, C621A). Nature of the assay: Calcium flux assay in HEK-293 cells, human TRPV1 C621A mutant. Conditions: 375 μM, pre-incubated (Figure 3).
The target in assay [4] is T1, TRPV1. As to the kind of experiment: Calcium flux assay in BEAS-2B cells stably overexpressing human TRPV1. The class given is cell-based. Conditions: capsaicin 2.5 μM.
The target in assay [5] is human TRPV1 C578A mutant (Homo sapiens, UniProt Q8NER1, C578A). Nature of the assay: Calcium flux assay in HEK-293 cells, human TRPV1 C578A mutant. Conditions: 375 μM, pre-incubated (Figure 3).
Chain of human TRPV1 C578A mutant (Q8NER1 whole entry C578A): as the sequence (Q8NER1 whole entry) above, with C578A counted along it
The test system of assay [6] is mutant human TRPV1 variants. Nature of the assay: Calcium flux assay in HEK-293 cells, three further. Conditions: 375 μM, pre-incubated (Figure 3).
Assay [7] concerns the target human TRPV1 F660A mutant (Homo sapiens, UniProt Q8NER1, F660A). Nature of the assay: Calcium flux assay in HEK-293 cells, human TRPV1 F660A mutant. Conditions: 375 μM, pre-incubated (Figure 3).
Assay [8] deals with TRPV1 (Mus musculus, UniProt Q704Y3). Nature of the assay: Long-term TRPV1 antagonism test in mouse DRG neurons. The format is cell-based. Conditions: 125 μM, 5 min incubation.
Chain of TRPV1 (Mus musculus, UniProt Q704Y3) (Q704Y3 whole entry): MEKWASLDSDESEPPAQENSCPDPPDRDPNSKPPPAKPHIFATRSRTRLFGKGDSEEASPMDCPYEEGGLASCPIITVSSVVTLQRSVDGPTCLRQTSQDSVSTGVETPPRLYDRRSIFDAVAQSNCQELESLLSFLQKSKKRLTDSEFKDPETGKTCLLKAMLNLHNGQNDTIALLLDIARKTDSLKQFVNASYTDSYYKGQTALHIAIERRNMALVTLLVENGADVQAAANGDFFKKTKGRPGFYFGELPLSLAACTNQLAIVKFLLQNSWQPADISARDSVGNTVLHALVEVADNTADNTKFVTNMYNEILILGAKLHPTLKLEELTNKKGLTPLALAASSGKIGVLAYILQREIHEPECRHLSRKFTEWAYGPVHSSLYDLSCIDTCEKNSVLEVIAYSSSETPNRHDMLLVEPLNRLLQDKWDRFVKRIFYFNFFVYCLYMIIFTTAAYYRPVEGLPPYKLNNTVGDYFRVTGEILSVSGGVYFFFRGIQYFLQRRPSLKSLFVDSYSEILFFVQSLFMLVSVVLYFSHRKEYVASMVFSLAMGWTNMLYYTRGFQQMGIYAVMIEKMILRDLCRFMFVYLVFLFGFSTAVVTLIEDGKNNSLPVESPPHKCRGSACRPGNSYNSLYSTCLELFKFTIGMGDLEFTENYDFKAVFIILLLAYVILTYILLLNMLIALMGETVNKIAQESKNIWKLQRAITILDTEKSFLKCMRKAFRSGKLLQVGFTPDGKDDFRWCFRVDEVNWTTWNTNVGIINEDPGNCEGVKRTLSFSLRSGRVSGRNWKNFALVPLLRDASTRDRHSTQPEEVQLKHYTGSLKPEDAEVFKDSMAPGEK
For assay [9], the system named is mouse DRG neurons. As to the kind of experiment: Fluorometric calcium flux assay in mouse DRG primary cell culture. The format is cell-based. Conditions: 125 μM final concentration; 25 mM KCl 5 min after application, then capsaicin.

T1 sequence (Q8NER1 whole entry): as the sequence (Q8NER1 whole entry) above
Chain of human TRPV1 C621A mutant (Q8NER1 whole entry C621A): as the sequence (Q8NER1 whole entry) above, with C621A counted along it
Chain of human TRPV1 F660A mutant (Q8NER1 whole entry F660A): as the sequence (Q8NER1 whole entry) above, with F660A counted along it

As for `C/C=C1\NC(=O)[C@H](C)NC(=O)[C@H](C(C)C)NC(=O)[C@H](NC(=O)[C@H](Cc2ccc(O)cc2)NC(=O)[C@@H](CC(C)C)NC(=O)[C@H](Cc2ccccc2)NC(C)=O)[C@@H](C)OC1=O` [Compound 8, Nobilamide E] (Ac-F[dL]Y[d(aThr)]VA[Dhb]; ester 4-C), in [1], the “inhibitory activity (in words)” value is “inactive”.

For the compound `C/C=C1\NC(=O)[C@H](C)NC(=O)[C@H](C(C)C)NC(=O)[C@H](NC(=O)[C@H](Cc2ccccc2)NC(=O)[C@@H](CC(C)C)NC(=O)[C@@H](Cc2ccccc2)NC(=O)CC)[C@@H](C)OC1=O` [Compound 1, A-3302-B] (Propionyl-[dF][dL]F[d(aThr)]VA[Dhb]; ester 4-C), the “inhibitory activity (in words)” value in assay [1] was “exhibited inhibitory activity”.

Take `C/C=C1\NC(=O)[C@H](C)NC(=O)[C@H](C(C)C)NC(=O)[C@H](NC(=O)[C@H](Cc2ccccc2)NC(=O)[C@@H](CC(C)C)NC(=O)[C@@H](Cc2ccccc2)NC(C)=O)[C@@H](C)OC1=O` [Compound 2, A-3302-A] (Ac-[dF][dL]F[d(aThr)]VA[Dhb]; ester 4-C): the “duration of abolished TRPV1 activity after removal of drug” value in assay [2] is more than 1 h. In addition, the “TRPV1 antagonism in C621A mutant” value in assay [3] is listed as “complete loss of TRPV1 antagonism”. Besides, the “antagonism of capsaicin in direct competition experiments” value in assay [4] is given as “antagonize the action of capsaicin on TRPV1”. Further, the “TRPV1 antagonism in C578A mutant” value in assay [5] is on record as “complete loss of TRPV1 antagonism”. The “inhibition of three other TRPV1 mutants” value in assay [6] is “in a manner similar to wild type”. For the same compound, the “inhibitory activity (in words)” value in assay [1] is reported as “exhibited inhibitory activity”. In [7], the “TRPV1 antagonism in F660A mutant” value was “complete loss of TRPV1 antagonism”.

In the case of `CC(=O)N[C@@H](Cc1ccccc1)C(=O)N[C@H](CC(C)C)C(=O)N[C@@H](Cc1ccccc1)C(=O)N[C@@H](C(=O)N[C@H](C(=O)N[C@@H](C)C(=O)O)C(C)C)[C@@H](C)O` [Compound 6, Nobilamide C] (Ac-F[dL]F[d(aThr)]VA-OH), the “inhibitory activity (in words)” value in assay [1] is given as “Neither 6 nor 1a exhibited detectable activity”.

As to `C/C=C(\NC(=O)[C@H](C)NC(=O)[C@@H](NC(=O)[C@H](NC(=O)[C@H](Cc1ccccc1)NC(=O)[C@@H](CC(C)C)NC(=O)[C@@H](Cc1ccccc1)NC(C)=O)[C@@H](C)O)C(C)C)C(=O)O` [Compound 4, Nobilamide A] (Ac-[dF][dL]F[d(aThr)]VA[Dhb]-OH), in [8] (three-hour recovery period), the “recovery of capsaicin response” value was “recovery was observed after three hours”. In addition, in [8] (capsaicin 100 or 200 nM), the “capsaicin response after incubation with compound” value is recorded as “initially abolished”. The “response to capsaicin after application of pure compound” value in [9] is listed as “complete loss of response to capsaicin”. In assay [1], the “inhibitory activity (in words)” value is “exhibited inhibitory activity”.

Regarding `C/C=C(\NC(=O)[C@H](C)NC(=O)[C@@H](NC(=O)[C@H](NC(=O)[C@H](Cc1ccccc1)NC(=O)[C@@H](CC(C)C)NC(=O)[C@@H](Cc1ccccc1)NC(=O)CC)[C@@H](C)O)C(C)C)C(=O)O` [Compound 5, Nobilamide B] (Propionyl-[dF][dL]F[d(aThr)]VA[Dhb]-OH), the “potency with pre-incubation versus co-application with capsaicin” value in [2] (375 μM compound, capsaicin 25 μM (Figure 1)) is “greatly increased with pre-incubation”. Moreover, in [2] (375 μM, 1 h timecourse with washes (Figure 2)), the “stability of inhibitory activity to washes” value is listed as “stable through four washes taking place over a 60-min period”. The rebound of activity entry in assay [2] (after washes, human cells) is listed as “slight rebound of activity was noticed after one hour”. The “duration of abolished TRPV1 activity after removal of drug” value in assay [2] is more than 1 h. Moreover, the “TRPV1 antagonism in C621A mutant” value in [3] is recorded as “complete loss of TRPV1 antagonism”. In assay [4], the “antagonism of capsaicin in direct competition experiments” value is “antagonize the action of capsaicin on TRPV1”. The “TRPV1 antagonism in C578A mutant” value in [5] is recorded as “complete loss of TRPV1 antagonism”. Further, in assay [6], the “inhibition of three other TRPV1 mutants” value is listed as “in a manner similar to wild type”. Moreover, the “inhibitory activity (in words)” value in assay [1] is recorded as “exhibited inhibitory activity”. For the same compound, in assay [7], the “TRPV1 antagonism in F660A mutant” value is reported as “complete loss of TRPV1 antagonism”.
